The test system of experiment [1] is natural PGN-dependent PO activity in the hemolymph of Tenebrio molitor larvae. Briefly: Inhibition of natural PGN-dependent PO activity by synthetic PGN. The experiment is classed as biochemical. The method, then: (§1) PO activity was assayed according to a Pye-spectrophotometric method using a substrate solution (4-methylcatechol, and 4-hydroxyproline ethylester in HCl). 4-methylcatechol was oxidized to quinone by PO, which was then converted through a non-enzymatic reaction with 4-hydroxyproline ethylester in HCl to 4-(4′-hydroxyl-2′-carbethoxy-1′-pyrroline)-5-methyl-o-benzoquinone, a stable compound having maximum absorbance at 520 nm (see FIG. 2)
Each of 10 μl (1 μg) of a 10% β-1,3-glucan solution, 10 μl. (1 μg) of a 10% S. aureus PGN solution, 10 μl (10 ng) of a 10% M. luteus PGN solution, and 10 μl (1 μg) of a 10% synthetic PGN (for each of the compounds of Formulae 1-4) solution was incubated together with 30 μl (protein 350 μg) of the hemolymph of Tenebrio molitor larvae at 30° C. for 5 minutes. Then, 4 μl of 4-methylcatechol (250 mM), 16 μl of 4-hydroxyproline ethylester (62.5 mM) in HCl, and 5 μl of 1M CaCl2 (10 mM) were added thereto. […] The reaction mixture was incubated at 30° C. and the absorbance of the reaction solution was measured at 520 nm (see FIG. 3).
Meanwhile, PO activity was also measured in the presence of 1 μg of S. aureus PGN and 1 μg of each of the synthetic PGNs.
Furthermore, PO activity was also measured in the presence of 1 μg of S. aureus PGN with an incremental addition of the synthetic PGN of Formula 3 (0.2, 0.4, 0.8, and 1.5 μg).

Another experiment concerns amidase activity. Briefly: Amidase activity assay with Boc-Phe-Ser-Arg-MCA substrate. Format: biochemical, Tenebrio molitor. Conditions: S. aureus PGN 1 μg plus synthetic PGN, 40 μM Boc-Phe-Ser-Arg-MCA, 30° C., fluorescence 380/460 nm; FIG. 6. On the procedure: 10 μl of a 10% gram-positive S. aureus PGN (final concentration: 1 μg) solution and 10 μl of a 10% synthetic PGN (the compound 35 of Formula 3) solution were incubated in the presence of 40 μM trypsin MCA (t-butyloxycarbonyl-benzyl-L-phenylalanyl-L-seryl-L-arginine-4-methylcoumaryl-7-amide; Boc-Phe-Ser-Arg-MCA) as a substrate at 30° C., and fluorescence was measured at 380 nm (excitation wavelength) and 460 nm (emission wavelength) using a fluorescence spectrophotometer (model UV-160A, Shimadzu).

Experiment [2] has as its system PGN-dependent pro-PO cascade in the hemolymph of Tenebrio molitor larvae. Briefly: PO activity assay (Pye-spectrophotometric method): effect of natural or synthetic PGN on PO activation. As to conditions: 30 μl hemolymph (protein 350 μg), 1 μg test substance (10 ng M. luteus PGN), 30° C.; FIG. 3. The experiment is classed as biochemical. The method, then: as §1
Each of 10 μl (1 μg) of a 10% β-1,3-glucan solution, 10 μl. (1 μg) of a 10% S. aureus PGN solution, 10 μl (10 ng) of a 10% M. luteus PGN solution, and 10 μl (1 μg) of a 10% synthetic PGN (for each of the compounds of Formulae 1-4) solution was incubated together with 30 μl (protein 350 μg) of the hemolymph of Tenebrio molitor larvae at 30° C. for 5 minutes. Then, 4 μl of 4-methylcatechol (250 mM), 16 μl of 4-hydroxyproline ethylester (62.5 mM) in HCl, and 5 μl of 1M CaCl2 (10 mM) were added thereto. Then, 20 mM Tris-HCl (pH 8.0) was added to a final volume of 500 μl. The reaction mixture was incubated at 30° C. and the absorbance of the reaction solution was measured at 520 nm (see FIG. 3).

Take “Tetrasaccharide Tetrapeptide [compound 35]”: in experiment [1] (1 μg of S. aureus PGN plus 0.2, 0.4, 0.8 and 1.5 μg synthetic PGN, FIG. 5), the “inhibition of PO activity with incremental addition of synthetic PGN” value is listed as “inhibited in a synthetic PGN concentration-dependent manner”. Further, in experiment [1] (in the presence of 1 μg of S. aureus PGN and 1 μg of each synthetic PGN, FIG. 4), the “inhibition of PGN-dependent PO activity” value is “strongest competitive inhibitor”. Besides, the “inhibition of amidase activity” value in the experiment on amidase activity was “same inhibition pattern as the PO activity”.

With β-1,3-glucan, the “activation of the PGN-dependent pro-PO cascade (PO activity, absorbance at 520 nm)” value in experiment [2] is on record as “activated”.

The values are drawn from patent US7915383B2, “Method of separating a peptidoglycan recognition protein from a hemolymph Tenebrio molitor larvae” (Yuhan Corporation, priority 2006, dated 2011).
